# According to patent US8455688B2, “HDAC inhibitors” (Lixte Biotechnology, Inc., priority 2007, dated 2013):
# Entries after “also recorded” stand apart in the source; their conditions may differ.
# Key:
# NCI-H69 Lung small cell = experiment: CellTiter-Glo proliferation assay, NCI-H69; type: cell-based; settings: Homo sapiens, 72 hr incubation, read-out: IC50 (50% inhibition of proliferation)
# Description: (§1) MDA-MB-231, HT-29, NCI-H460, NCI-H522, NCI-H69, GXF-209, HepG2, OVAR-3, PANC-1, DU-145, LNCAP, HL-60, K-562, and MOLT-4 cell lines were either obtained from the American Type Culture Collection (ATCC; Manassas, Va.), or from the National Cancer Institute (NCl; Frederick, Md.). RPM-1640 media, L-glutamine dipeptide (HyQ SG-200), and HEPES were obtained from Hyclone (Logan, Utah). Fetal bovine serum (FBS) was obtained from Sigma-Aldrich, (St. Louis, Mo.). DMSO was purchases from Fisher Chemicals (Fair Lawn, N.J.). The CellTiter-Glo Luminescent Cell Viability Assay reagent was obtained from Promega Corporation (Madison, Wis.). All tissue culture plasticware was obtained from Corning Incorporated (New York, N.Y.). Compound 100 and Compound 102 were provided by Lixte Biotechnology Holdings, Inc. (East Setauket, N.Y.). All cell lines were routinely cultured twice weekly in RPMI-1640 medium supplemented with 2 mM L-glutamine dipeptide, 10 mM HEPES, and 10% FBS. The adherent cell lines MDA-MB-231, HT-29, NCI-H460, NCI-H522, GXF-209, HepG2, OVAR-3, PANC-1, DU-145, and LNCAP cells were each seeded into two 96-well plates at 2,500 cells per well in a total volume of 50 uL and incubated in a 37 C humidified 5% CO2 cell culture incubator overnight. […] Luminescence was then recorded using the PerkinElmer Microbeta scintillation and luminescence counter (Trilux).
# [1] = test system: MOLT-4 Leukemia acute lympho; experiment: CellTiter-Glo proliferation assay, MOLT-4; type: cell-based; settings: Homo sapiens, 72 hr incubation, read-out: IC50 (50% inhibition of proliferation)
# Description: as §1
# HT-29 Colon = experiment: CellTiter-Glo proliferation assay, HT-29; type: cell-based; settings: Homo sapiens, 72 hr incubation, read-out: IC50 (50% inhibition of proliferation)
# Description: as §1
# LNCAP Prostate = experiment: CellTiter-Glo proliferation assay, LNCAP; type: cell-based; settings: Homo sapiens, 72 hr incubation, read-out: IC50 (50% inhibition of proliferation)
# Description: as §1
# DU-145 Prostate = experiment: CellTiter-Glo proliferation assay, DU-145; type: cell-based; settings: Homo sapiens, 72 hr incubation, read-out: IC50 (50% inhibition of proliferation)
# Description: as §1
# human cancer cell lines = experiment: Proliferation of multiple human cancer cell lines (panel summary); type: cell-based; settings: panel of Table 2
# Description: as §1
# [2] = test system: HL-60 Leukemia promyelocytic; experiment: CellTiter-Glo proliferation assay, HL-60; type: cell-based; settings: Homo sapiens, 72 hr incubation, estimated from the data, no curve fit possible, read-out: IC50 (50% inhibition of proliferation)
# Description: as §1
# NCI-H522 Lung adenoca = experiment: CellTiter-Glo proliferation assay, NCI-H522; type: cell-based; settings: Homo sapiens, 72 hr incubation, read-out: IC50 (50% inhibition of proliferation)
# Description: as §1
# NCI-H460 Lung large cell = experiment: CellTiter-Glo proliferation assay, NCI-H460; type: cell-based; settings: Homo sapiens, 72 hr incubation, read-out: IC50 (50% inhibition of proliferation)
# Description: as §1
# OVCAR-3 Ovary adenoca = experiment: CellTiter-Glo proliferation assay, OVCAR-3; type: cell-based; settings: Homo sapiens, 72 hr incubation, read-out: IC50 (50% inhibition of proliferation)
# Description: as §1
# normal mouse brain cells = experiment: Viability of normal mouse brain cells
# PANC-1 Pancreas = experiment: CellTiter-Glo proliferation assay, PANC-1; type: cell-based; settings: Homo sapiens, 72 hr incubation, read-out: IC50 (50% inhibition of proliferation)
# Description: as §1
# [3] = test system: medulloblastoma cell line DAOY; experiment: Inhibition of growth of medulloblastoma cell line DAOY; type: cell-based
# MDA-MB-231 Breast = experiment: CellTiter-Glo proliferation assay, MDA-MB-231; type: cell-based; settings: Homo sapiens, 72 hr incubation, read-out: IC50 (50% inhibition of proliferation)
# Description: as §1
# [4] = test system: K562 Leukemia chronic myelo; experiment: CellTiter-Glo proliferation assay, K562; type: cell-based; settings: Homo sapiens, 72 hr incubation, read-out: IC50 (50% inhibition of proliferation)
# Description: as §1
# GXF-209 Stomach = experiment: CellTiter-Glo proliferation assay, GXF-209; type: cell-based; settings: Homo sapiens, 72 hr incubation, read-out: IC50 (50% inhibition of proliferation)
# Description: as §1
# HepG2 Hepatoma = experiment: CellTiter-Glo proliferation assay, HepG2; type: cell-based; settings: Homo sapiens, 72 hr incubation, read-out: IC50 (50% inhibition of proliferation)
# Description: as §1
# SHSY-5Y xenografts = experiment: Inhibition of SHSY-5Y xenografts; settings: in vivo
IC50 (NCI-H69 Lung small cell),IC50 [1],IC50 (HT-29 Colon),IC50 (LNCAP Prostate),IC50 (DU-145 Prostate),IC50 [2],IC50 (NCI-H522 Lung adenoca),IC50 (NCI-H460 Lung large cell),IC50 (OVCAR-3 Ovary adenoca),IC50 (PANC-1 Pancreas),IC50 (MDA-MB-231 Breast),IC50 [4],IC50 (HepG2 Hepatoma),melting point,SMILES,activity against human cancer cell lines (human cancer cell lines),cancer types against which most active (human cancer cell lines),viability of normal mouse brain cells compared to control (normal mouse brain cells),activity against medulloblastoma cell line DAOY [3],IC50 (GXF-209 Stomach),activity against the growth of SHSY-5Y xenografts (SHSY-5Y xenografts)
16.1 µM,26.3 µM,47.6 µM,6.2 µM,50.2 µM,~60 µM,1.8 µM,> 100 µM,18.7 µM,11.9 µM,24.8 µM,58.3 µM,53.1 µM,,"O=C(CCCCCNC(=O)c1ccccc1S)Nc1cccnc1 [Compound 205, 2-Mercapto-N-[5-(pyridin-3-ylcarbamoyl)pentyl]benzamide]",low uM range; also recorded: active against multiple human cancer cell lines at low micromolar concentrations,"most active against lung adenocarcinoma, stomach cancer, pancreatic cancer, and breast cancer",high viability,active,22 µM,shows activity
,,,,,,,,,,,,,108 to 110 °C,"CN(C)c1ccc(NC(=O)CCCCCNC(=O)c2ccccc2S)cc1 [Compound 206, 2-Mercapto-N-[5-(4-dimethylamino-3-yl-carbamoyl)pentyl]benzamide]",,,,,,
